# Like-named read-outs stand apart in the source and are kept apart here.
# Columns and labels:
# [1] = system: plaque forming cells, antibody specific to sheep red blood cells; assay: Jerne Hemolytic Plaque Assay; type: in vivo, mice
# Experimental: This assay measures the IgM or IgG isotypes of specific antibody produced by antigen used to immunize the mice. […] The direct assay detects IgM and the indirect assay detects IgG-specific antibody.
# Washed spleen cells are added to an agarose (FMC, Rockland, Me.) preparation containing sheep red blood cells (SRBC) and guinea pig complement. A drop of this mixture is transferred to a small petri dish; a cover slip is then placed over the drop to flatten it. The agarose prep is allowed to solidify. Then, the dishes are placed in a small humidified changer inside a CO-2 incubator overnight.
# Small pinpoint cleared areas (plaques) will be observed under the cover slip. The cleared areas are caused by antibody, specific to the SRBC's being released by stimulated spleen cells and in conjunction with the complement, lyse surrounding SRBC's. These plaque forming cells (PFC's) are counted, and calculations are performed to obtain PFC's per […] spleen cells.
# 1. Spleens are harvested from mice according to a standard procedure and adjusted to a final concentration of 20% in […].
# 14. Count and record the number of hemolytic plaques per plate. Average plaque counts between the duplicate sets. Multiply the average number of plaques per group by 2.5 to obtain the number of plaque forming cells per million spleen cells.
# [2] = system: T- and B- lymphocyte isolated from mouse spleens; assay: Lymphocyte Blastogenesis Assay; type: in vivo; settings: for activation at 25 mg/kg / activation at 50 mg/kg / activation at 100 mg/kg / activation at 200 mg/kg: Mus musculus, Lymphocyte
# Description: This assay measures the ability of the compound under test to affect DNA synthesis and mitosis of T- and B- lymphocyte isolated from mouse spleens.
# Mitogens are substances which stimulate DNA synthesis and mitosis. The mitogens used in these studies were phytohemaglutinin (PHA) which is isolated from the red kidney bean and concanavalin-A (Con-A) which is isolated form the jack bean. Con-A binds to specific receptors (glycoproteins) containing mannosyl or glycosyl moieties and stimulates all murine T-cells to synthesize DNA, divide, and release lymphokines. Con-A in a soluble form allows distinction between T- and B-cells in the mouse, because although both T- and B-cells can bind 106 molecules of Con-A per cell, only T-cells are stimulated when this lectin is presented in a soluble form. PHA stimulates only subpopulations, T-2 cells, of T-cells in the mouse. Also, Con-A stimulates the production of cytokines such as Interleukin-2 (IL-2). In humans, both T- and B-cells are probably stimulated. The activation of B-cells by PHA may be indirect and mediated by the release of soluble mediators from PHA-activated T-cells.
# The lymphocyte blastogenesis test is a method to assess the ability of immunocompetent T- or B-cells to respond to a polyclonal mitogen (i.e. PHA or Con-A) or a specific antigen. It may be performed on lymphocytes obtained from mice treated with immunostimulators in vivo or the entire assay can be performed in vitro. The assay as described below uses minimal doses of polyclonal mitogens to induce blastogenesis (proliferation measure by DNA synthesis), in order to be able to assess the phenomena of amplification.
# 1. Sacrifice two mice/experimental group by cervical dislocation.
# 14. […]
# 15. Include in the experiment a control plate which contains the same cells group as above, but receive a 0.1 ml of media instead of mitogen.
# 18. After 48 hours all wells receive 0.025 mls of a 0.4 microcurie/ml solution of C-14 methyl thymidine and incubate at 37 C, 5% CO-2 for 18 hours.
compound,measurement,setting,value
"O=C1CCC(C2(O)C(=O)OC3C(O)COC32O)C1 (single isomer, unassigned) [L-KCPBL-A]",% INCREASE,[1]; 25 mg/kg (Table 12),233%
same,PFC,[1]; 25 mg/kg (Table 12),162.5 PFC/1 MILLION CELLS
same,% INCREASE,[1]; 50 mg/kg (Table 12),151%
same,PFC,[1]; 50 mg/kg (Table 12),122.5 PFC/1 MILLION CELLS
same,% INCREASE,[1]; 100 mg/kg (Table 12),120%
same,PFC,[1]; 100 mg/kg (Table 12),107.5 PFC/1 MILLION CELLS
same,% INCREASE,[1]; 200 mg/kg (Table 12),202%
same,PFC,[1]; 200 mg/kg (Table 12),147.5 PFC/1 MILLION CELLS
same,"antibody production / PFC, dose dependence",[1]; vs control,"stimulates T-dependent antibody production, but not in a dose response fashion"
"O=C1CCCC(C2(O)C(=O)OC3C(O)COC32O)C1 (single isomer, unassigned) [KCBL-A]",% INCREASE,[1]; 12.5 mg/ml (Table 10),100%
same,PFC,[1]; 12.5 mg/ml (Table 10),112.00 PFC/1 MILLION CELLS
same,% INCREASE,[1]; 25 mg/kg (Table 10),104%
same,PFC,[1]; 25 mg/kg (Table 10),115.00 PFC/1 MILLION CELLS
same,% INCREASE,[1]; 50 mg/kg (Table 10),193%
same,PFC,[1]; 50 mg/kg (Table 10),165.00 PFC/1 MILLION CELLS
same,% INCREASE,[1]; 100 mg/kg (Table 10),318%
same,PFC,[1]; 100 mg/kg (Table 10),235.00 PFC/1 MILLION CELLS
same,% INCREASE,[1]; 200 mg/kg (Table 10),215%
same,PFC,[1]; 200 mg/kg (Table 10),177.50 PFC/1 MILLION CELLS
same,CON-A 6 ug/ml,[2]; 12.5 mg/kg (Table 7),3412.0 counts per minute
same,PHA 14 ug/ml,[2]; 12.5 mg/kg (Table 7),1450.0 counts per minute
same,RPMI CONTROL,"[2]; 12.5 mg/kg, no mitogen (Table 7)",94.0 counts per minute
same,CON-A 6 ug/ml,[2]; 25.0 mg/kg (Table 7),5657.0 counts per minute
same,PHA 14 ug/ml,[2]; 25.0 mg/kg (Table 7),2178.0 counts per minute
same,RPMI CONTROL,"[2]; 25.0 mg/kg, no mitogen (Table 7)",77.0 counts per minute
same,CON-A 6 ug/ml,[2]; 50.0 mg/kg (Table 7),5059.0 counts per minute
same,PHA 14 ug/ml,[2]; 50.0 mg/kg (Table 7),2369.0 counts per minute
same,RPMI CONTROL,"[2]; 50.0 mg/kg, no mitogen (Table 7)",50.0 counts per minute
same,CON-A 6 ug/ml,[2]; 100.0 mg/kg (Table 7),4104.0 counts per minute
same,PHA 14 ug/ml,[2]; 100.0 mg/kg (Table 7),2384.0 counts per minute
same,RPMI CONTROL,"[2]; 100.0 mg/kg, no mitogen (Table 7)",76.0 counts per minute
same,activation at 25 mg/kg,"[2]; 25.0 mg/kg (Table 7), read-out: % INCREASE (CON-A 6 ug/ml)",56.6%
same,activation at 25 mg/kg,"[2]; 25.0 mg/kg (Table 7), read-out: % INCREASE (PHA 14 ug/ml)",26.1%
same,activation at 50 mg/kg,"[2]; 50.0 mg/kg (Table 7), read-out: % INCREASE (CON-A 6 ug/ml)",40%
same,activation at 50 mg/kg,"[2]; 50.0 mg/kg (Table 7), read-out: % INCREASE (PHA 14 ug/ml)",37.1%
same,activation at 100 mg/kg,"[2]; 100.0 mg/kg (Table 7), read-out: % INCREASE (CON-A 6 ug/ml)",13.6%
same,activation at 100 mg/kg,"[2]; 100.0 mg/kg (Table 7), read-out: % INCREASE (PHA 14 ug/ml)",38%
"CC(=O)CCC1(O)C(=O)OC2C(O)COC21O (stereo not shown) [KBBL, 2-(3-Ketobutyl)-2-Hydroxy-3-Keto-4-Dihydroxyethyl Butyrolactone <3, 6> Cyclohemiketal]",% INCREASE,[1]; 50 mg/kg (Table 11),70.2%
same,PFC,[1]; 50 mg/kg (Table 11),36.0 PFC/1 MILLION CELLS
same,% INCREASE,[1]; 100 mg/kg (Table 11),104.3%
same,PFC,[1]; 100 mg/kg (Table 11),48.0 PFC/1 MILLION CELLS
same,% INCREASE,[1]; 200 mg/kg (Table 11),106.4%
same,PFC,[1]; 200 mg/kg (Table 11),48.5 PFC/1 MILLION CELLS
same,CON-A 1.5 ug,[2]; 25 mg/kg (Table 9),3572
same,CON-A 2.25 ug,[2]; 25 mg/kg (Table 9),5398
same,PHA 10.5 ug,[2]; 25 mg/kg (Table 9),7935
same,PHA 14 ug,[2]; 25 mg/kg (Table 9),10994
same,RPMI CONTROL,"[2]; 25 mg/kg, no mitogen (Table 9)",255
same,CON-A 1.5 ug,[2]; 50 mg/kg (Table 9),2539
same,CON-A 2.25 ug,[2]; 50 mg/kg (Table 9),5802
same,PHA 10.5 ug,[2]; 50 mg/kg (Table 9),4579
same,PHA 14 ug,[2]; 50 mg/kg (Table 9),7295
same,RPMI CONTROL,"[2]; 50 mg/kg, no mitogen (Table 9)",92
same,CON-A 1.5 ug,[2]; 100 mg/kg (Table 9),1051
same,CON-A 2.25 ug,[2]; 100 mg/kg (Table 9),3056
same,PHA 10.5 ug,[2]; 100 mg/kg (Table 9),3540
same,PHA 14 ug,[2]; 100 mg/kg (Table 9),4878
same,RPMI CONTROL,"[2]; 100 mg/kg, no mitogen (Table 9)",33
same,CON-A 1.5 ug,[2]; 200 mg/kg (Table 9),2571
same,CON-A 2.25 ug,[2]; 200 mg/kg (Table 9),6891
same,PHA 14 ug,[2]; 200 mg/kg (Table 9),6963
same,RPMI CONTROL,"[2]; 200 mg/kg, no mitogen (Table 9)",55
same,activation at 25 mg/kg,"[2]; 25 mg/kg (Table 9), read-out: % INCR. (CON-A 1.5 ug)",663%
same,activation at 25 mg/kg,"[2]; 25 mg/kg (Table 9), read-out: % INCR. (CON-A 2.25 ug)",260%
same,activation at 25 mg/kg,"[2]; 25 mg/kg (Table 9), read-out: % INCR. (PHA 10.5 ug)",356%
same,activation at 25 mg/kg,"[2]; 25 mg/kg (Table 9), read-out: % INCR. (PHA 14 ug)",373%
same,activation at 50 mg/kg,"[2]; 50 mg/kg (Table 9), read-out: % INCR. (CON-A 1.5 ug)",443%
same,activation at 50 mg/kg,"[2]; 50 mg/kg (Table 9), read-out: % INCR. (CON-A 2.25 ug)",285%
same,activation at 50 mg/kg,"[2]; 50 mg/kg (Table 9), read-out: % INCR. (PHA 10.5 ug)",163%
same,activation at 50 mg/kg,"[2]; 50 mg/kg (Table 9), read-out: % INCR. (PHA 14 ug)",214%
same,activation at 100 mg/kg,"[2]; 100 mg/kg (Table 9), read-out: % INCR. (CON-A 1.5 ug)",54%
same,activation at 100 mg/kg,"[2]; 100 mg/kg (Table 9), read-out: % INCR. (CON-A 2.25 ug)",103%
same,activation at 100 mg/kg,"[2]; 100 mg/kg (Table 9), read-out: % INCR. (PHA 10.5 ug)",103%
same,activation at 100 mg/kg,"[2]; 100 mg/kg (Table 9), read-out: % INCR. (PHA 14 ug)",110%
same,activation at 200 mg/kg,"[2]; 200 mg/kg (Table 9), read-out: % INCR. (CON-A 1.5 ug)",449%
same,activation at 200 mg/kg,"[2]; 200 mg/kg (Table 9), read-out: % INCR. (CON-A 2.25 ug)",357%
same,activation at 200 mg/kg,"[2]; 200 mg/kg (Table 9), read-out: % INCR. (PHA 10.5 ug)",171%
same,activation at 200 mg/kg,"[2]; 200 mg/kg (Table 9), read-out: % INCR. (PHA 14 ug)",200%
same,stimulation at all doses,"[2]; all doses of PHA and Con-A, 25-200 mg/kg",stimulatory at all the doses of PHA and Con-A tested

# Reference: patent publication US5098933A, “Pharmaceutically useful Michael addition products of unsaturated aldehydes and ketones and ascorbic acid” (Theracel Corporation, priority 1990, dated 1992)
